From patent publication US11987586B1 (TAKEDA PHARMACEUTICAL COMPANY LIMITED, priority 2022, dated 2024)

Target: T1, human OX2 receptor (Homo sapiens, UniProt O43614)
T1 construct: expressed in transfected cells
T1 sequence (O43614 1-444): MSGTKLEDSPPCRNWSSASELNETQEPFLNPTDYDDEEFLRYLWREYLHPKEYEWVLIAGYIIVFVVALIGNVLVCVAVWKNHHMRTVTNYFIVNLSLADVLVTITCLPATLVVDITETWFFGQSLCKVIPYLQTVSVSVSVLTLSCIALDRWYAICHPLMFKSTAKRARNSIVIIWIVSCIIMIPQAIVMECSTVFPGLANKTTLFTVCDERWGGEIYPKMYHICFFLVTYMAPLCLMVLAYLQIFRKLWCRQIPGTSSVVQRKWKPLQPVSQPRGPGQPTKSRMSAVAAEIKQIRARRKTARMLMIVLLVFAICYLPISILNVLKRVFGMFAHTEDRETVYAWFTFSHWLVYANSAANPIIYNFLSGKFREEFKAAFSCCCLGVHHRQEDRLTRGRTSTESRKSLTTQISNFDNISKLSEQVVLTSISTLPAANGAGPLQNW
Experiment: Measurement of orexin type 2 receptor agonist activity (calcium fluorescence, Fluo-4, FDSS)
Assay type: cell-based
Details: 3 uM test compound; CHO cells expressing human OX2 receptor; DMSO = 0%, 10 nM orexin A (human) = 100%
Summary of the method: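 CHO-K1 cells stably expressing human OX2 receptor (residues 1-444) were loaded with Fluo-4 AM plus probenecid. Calcium fluorescence after compound addition was recorded for 1 min 40 s. Activity (%) was scaled between DMSO (0%) and 10 nM orexin A final (100%).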

OX2R agonist activity (3 uM, %) | Compound
100% | Cc1cc(-c2c(F)cc(F)cc2F)c2c(N3CC[C@H]4N(C[C@@H](NS(C)(=O)=O)C4(F)F)C3=O)noc2n1 [Example 258, N-{(4aR,6R)-5,5-difluoro-2-[6-methyl-4-(2,4,6-trifluorophenyl)[1,2]oxazolo[5,4-b]pyridin-3-yl]-1-oxooctahydropyrrolo[1,2-c]pyrimidin-6-yl}methanesulfonamide]
96% | CS(=O)(=O)N[C@@H]1CN2C(=O)N(c3noc4cc(Cl)cc(-c5c(F)cccc5F)c34)CC[C@@H]2C1(F)F [Example 259, N-{(4aR,6R)-2-[6-chloro-4-(2,6-difluorophenyl)-1,2-benzoxazol-3-yl]-5,5-difluoro-1-oxooctahydropyrrolo[1,2-c]pyrimidin-6-yl}methanesulfonamide]
108% | CCS(=O)(=O)N[C@@H]1CN2C(=O)N(c3noc4cccc(-c5c(F)cc(F)cc5F)c34)CC[C@@H]2C1(F)F [Example 260, N-{(4aR,6R)-5,5-difluoro-1-oxo-2-[4-(2,4,6-trifluorophenyl)-1,2-benzoxazol-3-yl]octahydropyrrolo[1,2-c]pyrimidin-6-yl}ethanesulfonamide]
105% | CCS(=O)(=O)N[C@@H]1CN2C(=O)N(c3noc4cc(F)cc(-c5c(F)cc(F)cc5F)c34)CC[C@@H]2C1(F)F [Example 261]
114% | CCS(=O)(=O)N[C@@H]1CN2C(=O)N(c3noc4cccc(-c5c(F)cccc5F)c34)CC[C@@H]2C1(F)F [Example 262]
114% | CCS(=O)(=O)N[C@@H]1CN2C(=O)N(c3noc4cc(F)cc(-c5c(F)cccc5F)c34)CC[C@@H]2C1(F)F [Example 263, N-{(4aR,6R)-2-[4-(2,6-difluorophenyl)-6-fluoro-1,2-benzoxazol-3-yl]-5,5-difluoro-1-oxooctahydropyrrolo[1,2-c]pyrimidin-6-yl}ethanesulfonamide]
107% | CN(C)S(=O)(=O)N[C@@H]1Cn2c(cn(-c3noc4ccc(F)c(-c5c(F)cc(F)cc5F)c34)c2=O)C1(F)F [Example 264, N′-{(6R)-7,7-difluoro-2-[5-fluoro-4-(2,4,6-trifluorophenyl)-1,2-benzoxazol-3-yl]-3-oxo-2,5,6,7-tetrahydro-3H-pyrrolo[1,2-c]imidazol-6-yl}-N,N-dimethylsulfuric diamide]
103% | O=C1N(c2noc3cc(F)cc(-c4c(F)cc(F)cc4F)c23)C[C@H]2N1C[C@@H](NS(=O)(=O)CF)C2(F)F [Example 266]
101% | O=c1n(-c2noc3cc(C(F)F)cc(-c4c(F)cc(F)cc4F)c23)cc2n1C[C@@H](NS(=O)(=O)CF)C2(F)F [Example 267, N-{(6R)-2-[6-(difluoromethyl)-4-(2,4,6-trifluorophenyl)-1,2-benzoxazol-3-yl]-7,7-difluoro-3-oxo-2,5,6,7-tetrahydro-3H-pyrrolo[1,2-c]imidazol-6-yl}-1-fluoromethanesulfonamide]
104% | Cc1cc2onc(N3CC[C@H]4N(C[C@@H](NS(=O)(=O)C5CC5)C4(F)F)C3=O)c2c(-c2c(F)cccc2F)n1 [Example 268, N-{(4aR,6R)-2-[4-(2,6-difluorophenyl)-6-methyl[1,2]oxazolo[4,5-c]pyridin-3-yl]-5,5-difluoro-1-oxooctahydropyrrolo[1,2-c]pyrimidin-6-yl}cyclopropanesulfonamide]
104% | CCS(=O)(=O)N[C@@H]1CN2C(=O)N(c3noc4ccc(F)c(-c5c(F)cccc5F)c34)CC[C@@H]2C1(F)F [Example 269, N-{(4aR,6R)-2-[4-(2,6-difluorophenyl)-5-fluoro-1,2-benzoxazol-3-yl]-5,5-difluoro-1-oxooctahydropyrrolo[1,2-c]pyrimidin-6-yl}ethanesulfonamide]
109% | O=C1N(c2noc3ccc(F)c(-c4c(F)cccc4F)c23)CC[C@H]2N1C[C@@H](NS(=O)(=O)CF)C2(F)F [Example 270, N-{(4aR,6R)-2-[4-(2,6-difluorophenyl)-5-fluoro-1,2-benzoxazol-3-yl]-5,5-difluoro-1-oxooctahydropyrrolo[1,2-c]pyrimidin-6-yl}-1-fluoromethanesulfonamide]
107% | O=C1N(c2noc3cc(F)cc(-c4c(F)cccc4F)c23)CC[C@H]2N1C[C@@H](NS(=O)(=O)C1CC1)C2(F)F [Example 271, N-{(4aR,6R)-2-[4-(2,6-difluorophenyl)-6-fluoro-1,2-benzoxazol-3-yl]-5,5-difluoro-1-oxooctahydropyrrolo[1,2-c]pyrimidin-6-yl}cyclopropanesulfonamide]
109% | O=c1n(-c2noc3ccc(F)c(-c4c(F)cc(F)cc4F)c23)cc2n1C[C@@H](NS(=O)(=O)C1CC1)C2(F)F [Example 272, N-{(6R)-7,7-difluoro-2-[5-fluoro-4-(2,4,6-trifluorophenyl)-1,2-benzoxazol-3-yl]-3-oxo-2,5,6,7-tetrahydro-3H-pyrrolo[1,2-c]imidazol-6-yl}cyclopropanesulfonamide]
103% | CS(=O)(=O)N[C@@H]1CN2C(=O)N(c3noc4cccc(-c5ccccc5F)c34)CC[C@@H]2C1(F)F [Example 273, N-{(4aR,6R)-5,5-difluoro-2-[4-(2-fluorophenyl)-1,2-benzoxazol-3-yl]-1-oxooctahydropyrrolo[1,2-c]pyrimidin-6-yl}methanesulfonamide]
102% | CS(=O)(=O)N[C@@H]1CN2C(=O)N(c3noc4cc(C(F)F)cc(-c5c(F)cc(F)cc5F)c34)C[C@@H]2C1(F)F [Example 274, N-{(6R,7aR)-2-[6-(difluoromethyl)-4-(2,4,6-trifluorophenyl)-1,2-benzoxazol-3-yl]-7,7-difluoro-3-oxohexahydro-1H-pyrrolo[1,2-c]imidazol-6-yl}methanesulfonamide]
103% | CCS(=O)(=O)N[C@@H]1CN2C(=O)N(c3noc4cc(C)nc(-c5c(F)cccc5F)c34)CC[C@@H]2C1(F)F [Example 275, N-{(4aR,6R)-2-[4-(2,6-difluorophenyl)-6-methyl[1,2]oxazolo[4,5-c]pyridin-3-yl]-5,5-difluoro-1-oxooctahydropyrrolo[1,2-c]pyrimidin-6-yl}ethanesulfonamide]
100% | CS(=O)(=O)N[C@@H]1CN2C(=O)N(c3noc4cccc(-c5cccc(F)c5F)c34)CC[C@@H]2C1(F)F [Example 276, N-{(4aR,6R)-2-[4-(2,3-difluorophenyl)-1,2-benzoxazol-3-yl]-5,5-difluoro-1-oxooctahydropyrrolo[1,2-c]pyrimidin-6-yl}methanesulfonamide]
106% | CS(=O)(=O)N[C@@H]1CN2C(=O)N(c3noc4cccc(-c5ccc(F)cc5)c34)CC[C@@H]2C1(F)F [Example 277, N-{(4aR,6R)-5,5-difluoro-2-[4-(4-fluorophenyl)-1,2-benzoxazol-3-yl]-1-oxooctahydropyrrolo[1,2-c]pyrimidin-6-yl}methanesulfonamide]
109% | CS(=O)(=O)N[C@@H]1CN2C(=O)N(c3noc4cccc(-c5cccs5)c34)CC[C@@H]2C1(F)F [Example 278, N-{(4aR,6R)-5,5-difluoro-1-oxo-2-[4-(thiophen-2-yl)-1,2-benzoxazol-3-yl]octahydropyrrolo[1,2-c]pyrimidin-6-yl}methanesulfonamide]
104% | O=C1N(c2noc3cc(F)cc(-c4c(F)cccc4F)c23)CC[C@H]2N1C[C@@H](NS(=O)(=O)CF)C2(F)F [Example 279, N-{(4aR,6R)-2-[4-(2,6-difluorophenyl)-6-fluoro-1,2-benzoxazol-3-yl]-5,5-difluoro-1-oxooctahydropyrrolo[1,2-c]pyrimidin-6-yl}-1-fluoromethanesulfonamide]
101% | O=C1N(c2noc3ccc(F)c(-c4c(F)cccc4F)c23)CC[C@H]2N1C[C@@H](NS(=O)(=O)C1CC1)C2(F)F [Example 280, N-{(4aR,6R)-2-[4-(2,6-difluorophenyl)-5-fluoro-1,2-benzoxazol-3-yl]-5,5-difluoro-1-oxooctahydropyrrolo[1,2-c]pyrimidin-6-yl}cyclopropanesulfonamide]
107% | O=C1N(c2noc3cc(F)cc(-c4c(F)cc(F)cc4F)c23)CC[C@H]2N1C[C@@H](NS(=O)(=O)C1CC1)C2(F)F [Example 281, N-{(4aR,6R)-5,5-difluoro-2-[6-fluoro-4-(2,4,6-trifluorophenyl)-1,2-benzoxazol-3-yl]-1-oxooctahydropyrrolo[1,2-c]pyrimidin-6-yl}cyclopropanesulfonamide]
107% | O=c1n(-c2noc3cc(F)cc(-c4c(F)cccc4F)c23)cc2n1C[C@@H](NS(=O)(=O)CF)C2(F)F [Example 283, N-{(6R)-2-[4-(2,6-difluorophenyl)-6-fluoro-1,2-benzoxazol-3-yl]-7,7-difluoro-3-oxo-2,5,6,7-tetrahydro-3H-pyrrolo[1,2-c]imidazol-6-yl}-1-fluoromethanesulfonamide]
109% | O=C1N(c2noc3cccc(-c4c(F)cccc4F)c23)CC[C@H]2N1C[C@@H](NS(=O)(=O)CF)C2(F)F [Example 284, N-{(4aR,6R)-2-[4-(2,6-difluorophenyl)-1,2-benzoxazol-3-yl]-5,5-difluoro-1-oxooctahydropyrrolo[1,2-c]pyrimidin-6-yl}-1-fluoromethanesulfonamide]
